Results on 16 molecules are retold here after publication PMC7866122, “Development of MTH1-Binding Nucleotide Analogs Based on 7,8-Dihalogenated 7-Deaza-dG Derivatives” (International Journal of Molecular Sciences, 2021).

For assay [1], the target named is T1, MTH1 (Homo sapiens, UniProt P36639). Description: Inhibition of the MTH1 hydrolysis of 8-oxo-dGTP (HPLC). The assay is classed as biochemical. The following applies: 50 μM 8-oxo-dGTP, 5 nM MTH1, pH 7.5, 37 °C, 10 min. As to the method: We examined whether the nucleoside diols, nucleoside monophosphate (NMP), and nucleoside triphosphate (NTP) derivatives inhibit the MTH1 hydrolysis of 8-oxo-dGTP. MTH1 and 8-oxo-dGTP were mixed with various concentrations of synthesized derivatives, and this mixture was incubated and analyzed by HPLC. In the case of diol compounds, 7,8-dichloro-7-deaza-dG (1), 7,8-dibromo-7-deaza-dG (2), and 7,8-diiodo-7-deaza-dG (3) exerted inhibitory effects on the hydrolytic activity of MHT1 at a micromolar level (Table 1, Entries 1–3). Their IC50 values were better than that of 8-iodo-7-deaza-dG (4) (Table 1, Entry 4).
Twenty microliters of MTH1 buffer (100 mM Tris-HCl, pH 7.5, 20 mM MgCl2, 200 mM NaCl, […] BSA, 40 mM DTT, and 50% glycerol), 10 μL (500 μM) of 8-oxo-dGTP, 55 μL of MilliQ, and 10 μL of various concentrations of substituted 7-deaza-dG derivatives were pre-incubated at 37 °C for 10 min (concentrations used: 7-deaza-dG, 7,8-dihalogenated-7-deaza-dG were 0, 0.5, 1, 2.5, 5, 10, 25, 50, 100, and 250 μM in 1% DMSO; 8-CF3-7-deazadGMP (3) was 0, 0.05, 0.1, 0.25, 0.5, 1, 2.5, 5, 10, and 25 μM; 7,8-dihalogenated-7-deaza-dGMP and –dGTP were 0, 0.0125, 0.025, 0.05, 0.1, 0.25, 0.5, 1, and 2.5 μM). Five microliters of MTH1 (0.1 pmol/μL in MTH1 buffer) was added, and the reaction mixture was incubated at 37 °C for 10 min. The resulting solutions were quenched with 100 μL of stop solution (5 mM EDTA). All samples were loaded on ice before the analysis with HPLC (HPLC conditions: A: 0.1 M TEAA, B: MeCN; Flow rate: 1.0 mL/min; Shiseido MG1 (4.6 × 250 mm); UV detector: 254 nm; 35 °C). The relative hydrolysis ratio values (ratio with inhibitor/ratio without inhibitor) were plotted at each inhibitor concentration. IC50 values were assessed using images.

In assay [2] the target is T1, MTH1. The arrangement: method as in doi:10.1016/j.tet.2014.01.047, PMID 26879218, PMID 27372838. The following applies: earlier work of the authors; cited from earlier work.
In assay [3] the target is T1, MTH1. The arrangement: method as in earlier work. The following applies: inhibition of the hydrolytic activity of MTH1; ChemBioChem 17, 566 (2016); cited from earlier work.
Assay [4] has as its target T1, MTH1. The assay is described as follows: Hydrolysis of triphosphate derivatives by MTH1 (HPLC time course). It is filed as biochemical. The following applies: 50 μM dNTP, 5 nM MTH1, 37 °C, various times. As to the method: Since the shapes of synthesized triphosphate derivatives were similar to 8-oxo-dGTP, we investigated whether these triphosphate derivatives are hydrolyzed by MTH1. MTH1 and these triphosphate derivatives were mixed and incubated at 37 °C for various times, and hydrolysis reactions were analyzed by HPLC. […] However, in the case of 7,8-dihalogenated triphosphate derivatives, the peak of the corresponding monophosphate was not detected in HPLC following the treatment with MTH1 (Figure 2. 9: purple, 10: red and 11: blue lines).
The reaction mixture was pre-incubated at 37 °C for 10 min before the addition of MTH1 to a final volume of 100 L (final concentration: 20 mM Tris-HCl, pH 7.5, 4 mM MgCl2, 40 mM NaCl, […] bovine serum albumin (BSA), 8 mM dithiothreitol (DTT), 10% glycerol; 0.5 pmol MTH1; 50 μM 7,8-dihalogenated-7-deaza-dGTP […], 8-CF3-7-deaza-dGTP (4), and 8-oxo-dGTP). The resulting solutions were incubated at 37 °C for various times and quenched with 100 μL of stop solution (5 mM EDTA). All samples were loaded on ice before the analysis with HPLC (HPLC conditions: A: 0.1 M TEAA, B: CH3CN; Flow rate: 1.0 mL/min; Shiseido MG1 (4.6 × 250 mm); UV detector: 254 nm; column oven: 35 °C).
Figure 2 Time courses of the hydrolysis of 8-oxo-dGTP, 7-deaza-dGTP, and 7,8-dihalogenated-7-deaza-dGTP (9, 10, and 11) by MTH1. Reaction conditions: 20 mM Tris-HCl pH 7.5, 4 mM MgCl2, 40 mM NaCl, 80 μg/mL bovine serum albumin (BSA), 8 mM dithiothreitol (DTT), 10% glycerol; 50 μM 8-oxo-dGTP, 5 nM MTH1; 50 μM dNTPs; incubated at 37 °C for various times. Hydrolysis reactions were analyzed by HPLC, and the cleavage rate was calculated from the peak area.

Assay [5] concerns the target T1, MTH1. Description: Steady-state kinetics of MTH1 hydrolysis of 8-oxo-dGTP (Lineweaver-Burk plot). The following applies: 2 nM MTH1, 37 °C. The assay is classed as biochemical. An excerpt: We made a Lineweaver-Burk plot to calculate kinetic parameters (KM and kcat) in order to reveal the types of inhibition modes for MTH1. […] In the presence of new 7-deaza-dG monophosphate and triphosphate, kcat values were only slightly altered (Entries 2–7). On the other hand, all KM values increased (Entries 2–7).

Setting [6] is: 8-oxo-dGTP hydrolysis in the presence of inhibitor, 10–250 μM 8-oxo-dGTP.
The mark [7] stands for this setting: substrate 8-oxo-dGTP, in the absence of inhibitors.

By IC50 is commonly meant the concentration that inhibits the measured activity by half. In general, Ki refers to a measure of affinity in units of concentration, obtained from inhibition or displacement. In general, kcat refers to the number of substrate molecules converted per active site and unit of time at saturation. What is called Km is the substrate concentration at which the rate is half of its maximum.

The structures appear in SMILES notation. “Also recorded” adds a separate entry of the source. Read-outs that look alike come from different tables or passages of the source.

`Nc1nc2c(cc(I)n2[C@H]2C[C@H](O)[C@@H](COP(=O)(O)O)O2)c(=O)[nH]1` [Compound 8, 8-Iodo-7-deaza-2′-deoxy-guanosine monophosphate] came in with a 50% inhibitory concentration (IC50) at MTH1 [1] of 840 nM.

For the molecule `Nc1nc2c(c(Cl)c(Cl)n2[C@H]2C[C@H](O)[C@@H](CO)O2)c(=O)[nH]1` [Compound 1, 7,8-di-Chloro-7-deaza-2′-deoxy-guanosine], at MTH1 [1], the IC50 was determined as 22500 nM.

As to `Nc1nc2c(c(Br)c(Br)n2[C@H]2C[C@H](O)[C@@H](CO)O2)c(=O)[nH]1` [Compound 2, 7,8-di-Bromo-7-deaza-2′-deoxy-guanosine], 10700 nM corresponded to half-maximal inhibition against MTH1 [1] (IC50).

The molecule `Nc1nc2c(c(I)c(I)n2[C@H]2C[C@H](O)[C@@H](CO)O2)c(=O)[nH]1` [Compound 3, 7,8-di-Iodo-7-deaza-2′-deoxy-guanosine] had a half-maximal inhibitory concentration (IC50) against MTH1 [1] of 17000 nM.

On to `Nc1nc2c(cc(I)n2[C@H]2C[C@H](O)[C@@H](COP(=O)(O)OP(=O)(O)OP(=O)(O)O)O2)c(=O)[nH]1` [Compound 12, 8-iodo-7-deaza-dGTP], for which the Ki on MTH1 [2] is 61.7 nM. The half-inhibitory concentration (IC50) on MTH1 [3] was 420 nM.

Take `Nc1nc2c(c(Br)c(Br)n2[C@H]2C[C@H](O)[C@@H](COP(=O)(O)OP(=O)(O)OP(=O)(O)O)O2)c(=O)[nH]1` [Compound 10, 7,8-di-Bromo-7-deaza-2′-deoxy-guanosine triphosphate]: the “Hydrolysis to the monophosphate by MTH1” value on MTH1 [4] is reported as “not detected; also recorded: not hydrolyzed”. On MTH1 [5] (setting [6]), the turnover number (kcat) amounted to 9.4 s⁻¹. The same molecule registered a Ki on MTH1 [5] (10–250 μM 8-oxo-dGTP) of 24.2 nM. The IC50 at MTH1 [1] was found to be 110 nM.

`Nc1nc2c(c(Cl)c(Cl)n2[C@H]2C[C@H](O)[C@@H](COP(=O)(O)O)O2)c(=O)[nH]1` [Compound 5, 7,8-di-Chloro-7-deaza-2′-deoxy-guanosine monophosphate]: the kcat at MTH1 [5] (setting [6]) stood at 9.7 s⁻¹. In addition, the inhibition constant (Ki) on MTH1 [5] (10–250 μM 8-oxo-dGTP) stood at 37 nM. This molecule returned an IC50 against MTH1 [1] of 130 nM.

`CC(=O)OC[C@H]1O[C@@H](n2ccc3c(=O)[nH]c(N)nc32)C[C@@H]1OC(C)=O` [Compound 13, 3′,5′-di-O-Acetyl-7-deaza-2′-deoxyguanosine]: on MTH1 [4], the “Hydrolysis to the monophosphate by MTH1” value is recorded as “not hydrolyzed”.

For `Nc1nc2c(c(I)c(I)n2[C@H]2C[C@H](O)[C@@H](COP(=O)(O)OP(=O)(O)OP(=O)(O)O)O2)c(=O)[nH]1` [Compound 11, 7,8-di-Iodo-7-deaza-2′-deoxy-guanosine triphosphate], the “Hydrolysis to the monophosphate by MTH1” value on MTH1 [4] was “not detected”. In addition, the kcat on MTH1 [5] (setting [6]) was 11.9 s⁻¹. At MTH1 [5] (10–250 μM 8-oxo-dGTP), this molecule had a Ki of 30.4 nM. The same molecule displayed a half-maximal inhibitory concentration (IC50) on MTH1 [1] of 130 nM.

Consider `Nc1nc2c(c(Cl)c(Cl)n2[C@H]2C[C@H](O)[C@@H](COP(=O)(O)OP(=O)(O)OP(=O)(O)O)O2)c(=O)[nH]1` [Compound 9, 7,8-di-Chloro-7-deaza-2′-deoxy-guanosine triphosphate], for which the “Hydrolysis to the monophosphate by MTH1” value at MTH1 [4] is “not detected”. For the same molecule, the kcat on MTH1 [5] (setting [6]) was 9.3 s⁻¹. On MTH1 [5] (10–250 μM 8-oxo-dGTP), this molecule displayed a Ki of 28.1 nM. In addition, it took 160 nM to reach half-maximal inhibition against MTH1 [1] (IC50).

In the case of `NC1=NC(=O)C2=NC(=O)N([C@H]3C[C@H](O)[C@@H](COP(=O)(O)OP(=O)(O)OP(=O)(O)O)O3)C2=N1` [Compound 8-oxo-dGTP, 8-oxo-2′-deoxyguanosine-5′-triphosphate, reference compound], the “Hydrolysis to the monophosphate by MTH1” value at MTH1 [4] was “rapidly hydrolyzed”. Moreover, at MTH1 [5] (setting [7]), the Km was determined as 17.6 µM and the catalytic constant (kcat) worked out at 10.6 s⁻¹.

As to `Nc1nc2c(c(I)c(I)n2[C@H]2C[C@H](O)[C@@H](COP(=O)(O)O)O2)c(=O)[nH]1` [Compound 7, 7,8-di-Iodo-7-deaza-2′-deoxy-guanosine monophosphate], the “Hydrolysis to the monophosphate by MTH1” value on MTH1 [4] was “not hydrolyzed”. Further, the kcat on MTH1 [5] (setting [6]) was determined as 10.7 s⁻¹. The molecule further had a half-maximal inhibitory concentration (IC50) on MTH1 [1] of 130 nM.

`Nc1nc2c(cc(I)n2[C@H]2C[C@H](O)[C@@H](CO)O2)c(=O)[nH]1` [Compound 4, 8-iodo-7-deaza-dG]: the IC50 at MTH1 [3] is 44800 nM.

For the molecule `Nc1nc2c(ccn2[C@H]2C[C@H](O)[C@@H](COP(=O)(O)OP(=O)(O)OP(=O)(O)O)O2)c(=O)[nH]1` [Compound 7-deaza-dGTP, 7-deaza-dGTP, reference compound], on MTH1 [4], the “Hydrolysis to the monophosphate by MTH1” value was “hydrolyzed, but more slowly than 8-oxo-dGTP”.

On to `Nc1nc2c(c(Br)c(Br)n2[C@H]2C[C@H](O)[C@@H](COP(=O)(O)O)O2)c(=O)[nH]1` [Compound 6, 7,8-di-Bromo-7-deaza-2′-deoxy-guanosine monophosphate], for which, on MTH1 [5] (setting [6]), the turnover number (kcat) was 9.1 s⁻¹. For the same molecule, the Ki on MTH1 [5] (10–250 μM 8-oxo-dGTP) is 27.9 nM. The same molecule displayed an IC50 at MTH1 [1] of 260 nM.

In the case of `CNc1cc(-c2cccc(Cl)c2Cl)nc(N)n1` [TH287, reference compound], the 50% inhibitory concentration (IC50) on MTH1 [3] is 10 nM.
